This is an account of results in paper PMC7155171, “Probing the Open Global Health Chemical Diversity Library for Multistage-Active Starting Points for Next-Generation Antimalarials” (ACS Infectious Diseases, 2020).

Like-named read-outs stand apart in the source and are kept apart here. Bounds are passed on as bounds.

Broadly, the IC50 is the concentration that inhibits the measured activity by half.

Experiment [1] deals with P. falciparum Dd2 (PfLuc) line expressing firefly luciferase, asexual blood stage. The experiment can be described thus: microbe, parasite or virus in culture. It is filed as cell-based, Plasmodium falciparum. The following applies: Plasmodium falciparum.
Another experiment deals with P. falciparum Dd2. The experiment can be described thus: SYBR green I asexual blood stage proliferation assay (96 h). Type of experiment: cell-based, Plasmodium falciparum. The following applies: Plasmodium falciparum, DD2, 11-pt dose response, 96hr.
[2] abbreviates: DD2, read-out: CDD P. falciparum Luciferase ABS 11-pt Reconfirmation Dose Response (48hr): IC50 (μM), 11-pt dose response, 48hr.
Setting [3] is: DD2, 8-pt dose response, 96hr, read-out: CDD P. falciparum Luciferase ABS 8-pt Reconfirmation Dose Response (96hr): IC50.
[4] abbreviates: DD2, 8-pt dose response, 96hr, read-out: CDD P. falciparum Luciferase ABS 8-pt Reconfirmation Dose Response (96hr): Maximum inhibition (%).
The mark [5] stands for this setting: DD2, 11-pt dose response, 48hr, read-out: CDD P. falciparum Luciferase ABS 11-pt Reconfirmation Dose Response (48hr): Maximum inhibition (%).
Setting [6] is: DD2, 11-pt dose response, 96hr, read-out: CDD P. falciparum Luciferase ABS 11-pt Reconfirmation Dose Response (96hr): IC50.
The mark [7] stands for this setting: DD2, 11-pt dose response, 96hr, read-out: CDD P. falciparum Luciferase ABS 11-pt Reconfirmation Dose Response (96hr): Maximum inhibition (%).
Setting [8] is: Sybr Green I, read-out: CDD P. falciparum Sybr Green I ABS 11-pt Reconfirmation Dose Response (96hr): IC50.
The mark [9] stands for this setting: Sybr Green I, read-out: CDD P. falciparum Sybr Green I ABS 11-pt Reconfirmation Dose Response (96hr): Maximum inhibition (%).
[10] abbreviates: DD2, read-out: P. falciparum Luciferase ABS 11-pt Reconfirmation Dose Response (48hr): IC50, 11-pt dose response, 48hr.
Where [11] appears, read: DD2, 8-pt dose response, 96hr, read-out: P. falciparum Luciferase ABS 8-pt Reconfirmation Dose Response (96hr): IC50.
The mark [12] stands for this setting: DD2, 8-pt dose response, 96hr, read-out: P. falciparum Luciferase ABS 8-pt Reconfirmation Dose Response (96hr): Maximum inhibition (%).
[13] abbreviates: DD2, 11-pt dose response, 48hr, read-out: P. falciparum Luciferase ABS 11-pt Reconfirmation Dose Response (48hr): Maximum inhibition (%).
Setting [14] is: DD2, 11-pt dose response, 96hr, read-out: P. falciparum Luciferase ABS 11-pt Reconfirmation Dose Response (96hr): IC50.
Where [15] appears, read: DD2, 11-pt dose response, 96hr, read-out: P. falciparum Luciferase ABS 11-pt Reconfirmation Dose Response (96hr): Maximum inhibition (%).
Setting [16] is: read-out: P. falciparum Sybr Green I ABS 11-pt Reconfirmation Dose Response (96hr): IC50.
Where [17] appears, read: read-out: P. falciparum Sybr Green I ABS 11-pt Reconfirmation Dose Response (96hr): Maximum inhibition (%).

For `COc1cccc(CN(C)Cc2[nH]c3ccccc3c2C)c1O` [DDD01247848], the IC50 worked out at 1.95 µM in experiment [1] (setting [2]), 0.44 µM in experiment [1] (setting [3]), 0.908 µM in experiment [1] (setting [6]) and 1050 nM in the experiment on P. falciparum Dd2 (setting [8]). The Emax in experiment [1] (setting [4]) turned out to be 94.4%; in experiment [1] (setting [5]), 95.9%; in experiment [1] (setting [7]) it was 98.6%; with P. falciparum Dd2 (setting [9]), 98%.
Turning to `Cc1cccnc1[C@H](C)Nc1nc(-c2cccnc2)nc2c1CNC2` [DDD01248607], the IC50 turned out to be 1.59 µM in experiment [1] (setting [10]), 1.6 µM in experiment [1] (setting [11]), 1.37 µM in experiment [1] (setting [14]) and 3910 nM with P. falciparum Dd2 (setting [16]). In addition, the Emax in experiment [1] (setting [12]) amounted to 92.2%; in experiment [1] (setting [13]), 79.2%; in experiment [1] (setting [15]), 99.4%; in the experiment on P. falciparum Dd2 (setting [17]), 91.2%.
Turning to `NC1(C(=O)NCC2CCCN(Cc3ccccc3F)C2)CCCC1` (centres unmarked) [DDD01249015], the IC50 in experiment [1] (setting [2]) was more than 12.5 µM; in experiment [1] (setting [3]), 0.62 µM; in experiment [1] (setting [6]) it was 1.47 µM; with P. falciparum Dd2 (setting [8]), more than 4160 nM. For the same compound, the Emax was found to be 89.1% in experiment [1] (setting [4]), 55.5% in experiment [1] (setting [5]), 87.8% in experiment [1] (setting [7]) and 77.3% in the experiment on P. falciparum Dd2 (setting [9]).
Turning to `c1ccc(Oc2nccc3occc23)c(CN2CCCCC2)c1` [DDD01249169], the half-maximal inhibitory concentration (IC50) in experiment [1] (setting [2]) is more than 12.5 µM; in experiment [1] (setting [3]), 0.69 µM; in experiment [1] (setting [6]), 1.52 µM; with P. falciparum Dd2 (setting [8]), 7190 nM. The Emax in experiment [1] (setting [4]) stood at 87.1%; in experiment [1] (setting [5]) it was 34.1%; in experiment [1] (setting [7]) it was 78.9%; in the experiment on P. falciparum Dd2 (setting [9]), 73.8%.
Regarding `CC(C)[C@@H]1CN(C(=O)C2(c3ccccc3)CCN(C)CC2)C[C@H]1N(C)C` [DDD01249452], the IC50 in experiment [1] (setting [2]) was 6.23 µM; in experiment [1] (setting [3]), 0.83 µM; in experiment [1] (setting [6]) it was 2.18 µM; in the experiment on P. falciparum Dd2 (setting [8]), 3270 nM. Further, the Emax was 90.5% in experiment [1] (setting [4]), 95.6% in experiment [1] (setting [7]) and 87.8% with P. falciparum Dd2 (setting [9]).
On to `CCc1ccc(CN(CCN(C)C)Cc2ccc(C)s2)nc1` [DDD01249772], for which the IC50 was 1.02 µM in experiment [1] (setting [10]), 1.2 µM in experiment [1] (setting [11]), 0.278 µM in experiment [1] (setting [14]) and 3000 nM with P. falciparum Dd2 (setting [16]). In addition, the Emax in experiment [1] (setting [12]) turned out to be 90.5%; in experiment [1] (setting [13]), 95.2%; in experiment [1] (setting [15]), 101%; in the experiment on P. falciparum Dd2 (setting [17]) it was 93.4%.
In the case of `CC(C)c1nccc(C2(c3ccccc3Cl)CCNCC2)n1` [DDD01250092], the IC50 in experiment [1] (setting [2]) was determined as 3.82 µM; in experiment [1] (setting [3]), 1.08 µM; in experiment [1] (setting [6]), 1.95 µM; in the experiment on P. falciparum Dd2 (setting [8]) it was 5400 nM. The Emax in experiment [1] (setting [4]) was 86.6%; in experiment [1] (setting [5]) it was 58.4%; in experiment [1] (setting [7]), 90.3%; with P. falciparum Dd2 (setting [9]), 74.3%.
With `Cc1cccc2[nH]c(-c3cn(C4CCNCC4)nn3)nc12` [DDD01250141], the IC50 in experiment [1] (setting [2]) amounted to 3.07 µM; in experiment [1] (setting [3]), 0.59 µM; in experiment [1] (setting [6]), 2.16 µM; in the experiment on P. falciparum Dd2 (setting [8]) it was 1480 nM. Besides, the Emax in experiment [1] (setting [4]) came out at 94.4%; in experiment [1] (setting [5]), 66.5%; in experiment [1] (setting [7]) it was 97.2%; in the experiment on P. falciparum Dd2 (setting [9]) it was 72.3%.
For `O=C(c1scc2c1OCCO2)N1CCOC(CCc2ccccc2)C1` (centres unmarked) [DDD01250278], the 50% inhibitory concentration (IC50) was determined as 1.39 µM in experiment [1] (setting [2]), 0.55 µM in experiment [1] (setting [3]), 0.767 µM in experiment [1] (setting [6]) and 1470 nM in the experiment on P. falciparum Dd2 (setting [8]). Moreover, the Emax is 93.1% in experiment [1] (setting [4]), 97.2% in experiment [1] (setting [5]), 100% in experiment [1] (setting [7]) and 101% in the experiment with P. falciparum Dd2 (setting [9]).
Consider `CCCn1ccnc1CN1CCCC1c1ccccn1` (centres unmarked) [DDD01250556], for which the IC50 in experiment [1] (setting [2]) is 4.66 µM; in experiment [1] (setting [3]) it was 0.46 µM; in experiment [1] (setting [6]) it was 1.47 µM; in the experiment on P. falciparum Dd2 (setting [8]), 11900 nM. Also, the Emax amounted to 53.8% in experiment [1] (setting [5]), 94.8% in experiment [1] (setting [7]) and 68.5% in the experiment on P. falciparum Dd2 (setting [9]).
In the case of `Cc1cc2nc(-c3cn(C4CCNCC4)nn3)[nH]c2cc1C` [DDD01250700], the IC50 was 2.08 µM in experiment [1] (setting [2]), 0.34 µM in experiment [1] (setting [3]), 1.01 µM in experiment [1] (setting [6]) and 3230 nM in the experiment on P. falciparum Dd2 (setting [8]). Further, the Emax was found to be 95.8% in experiment [1] (setting [4]), 61.5% in experiment [1] (setting [5]), 98.7% in experiment [1] (setting [7]) and 82% with P. falciparum Dd2 (setting [9]).
